Data on 17 compounds can be found in patent US10407422B2, “Triazolopyridine inhibitors of myeloperoxidase” (priority 2015, dated 2019).

Molecules are shown by their SMILES.

Holding throughout (assay type): biochemical
Test [1] deals with T1, myeloperoxidase (MPO) (Homo sapiens (Human), UniProt P05164). In words: MPO chlorination assay (APF assay). Particulars: potency range class. In short, it runs like this: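 Human MPO (200 pM) preincubated 10 min at room temperature with inhibitor and 120 mM NaCl in 100 mM KPi pH 7.4. Reaction started with APF plus 10 μM H2O2, and hypochlorite-generated fluorescein read kinetically (ex 485/em 535 nm) for 3 min. IC50 from linear-phase slopes fitted to a four-parameter equation.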
T1 sequence (P05164 49-745): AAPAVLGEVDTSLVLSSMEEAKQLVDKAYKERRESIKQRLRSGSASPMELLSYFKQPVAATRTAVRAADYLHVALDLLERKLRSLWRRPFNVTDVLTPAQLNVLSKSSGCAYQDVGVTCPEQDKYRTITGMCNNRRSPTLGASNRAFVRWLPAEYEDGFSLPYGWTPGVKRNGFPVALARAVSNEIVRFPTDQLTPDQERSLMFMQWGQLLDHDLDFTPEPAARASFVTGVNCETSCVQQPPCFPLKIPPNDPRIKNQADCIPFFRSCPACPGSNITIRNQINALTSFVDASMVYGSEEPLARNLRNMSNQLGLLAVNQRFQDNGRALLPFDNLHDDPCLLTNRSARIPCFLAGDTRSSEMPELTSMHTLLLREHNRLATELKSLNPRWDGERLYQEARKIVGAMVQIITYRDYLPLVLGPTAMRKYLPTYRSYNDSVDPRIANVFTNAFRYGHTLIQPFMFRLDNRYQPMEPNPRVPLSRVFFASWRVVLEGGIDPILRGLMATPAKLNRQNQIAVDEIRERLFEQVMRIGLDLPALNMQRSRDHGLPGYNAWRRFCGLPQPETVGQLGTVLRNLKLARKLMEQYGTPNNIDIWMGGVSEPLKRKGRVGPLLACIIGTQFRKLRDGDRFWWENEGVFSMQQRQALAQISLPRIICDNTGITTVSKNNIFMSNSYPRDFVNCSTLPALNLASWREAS

The target in test [2] is eosinophil peroxidase (EPX) (Homo sapiens (Human), UniProt P11678). In words: EPX bromination assay. How it is done:
[formula] where A=minimal Y value (activity level of inhibited sample), B=maximal Y value (activity level of uninhibited sample), C=Log IC50, D=Hill Slope, x=concentration of inhibitor. EPX Bromination Assay
EPX bromination activity was measured in 100 mM KPi (pH 7.4) by monitoring the H2O2 catalyzed formation of 3-bromo tyrosine from tyrosine and potassium bromide. A 50 μl mixture of 0.6 μM EPX (Lee Biosolutions Cat. #342-60) was added to 100 nL inhibitor in 100% DMSO in a 384 well REMP plate. Enzyme and compound were preincubated for ten minutes at room temperature.
After the ten minute preincubation of enzyme and inhibitor, 25 μL of a mixture containing 400 μM tyrosine and 1200 μM potassium bromide was added to the plate containing enzyme and inhibitor, followed by the addition of 25 μl of 20 μM H2O2. The reaction was allowed to proceed for 15 minutes, at which time it was quenched with 10 μL of 20% TCA. The final concentrations of all components were 0.3 μM EPX, 100 μM tyrosine, […], 5 μM H2O2, 0.1% DMSO, 2.0% TCA.
IC50 values were determined by determining the peak areas of 3-bromotyrosine present at the end of the 15 minute reaction and fitting the data to:
[formula] where A=minimal Y value (activity level of inhibited sample), B=maximal Y value (activity level of uninhibited sample), C=Log IC50, D=Hill Slope, x=concentration of inhibitor.
Reversed-phase analysis was performed on a Waters Acquity Ultra Performance LC system using an Acquity UPLC BEH C18 […], 2.1×50 mm analytical column. The column was maintained at 60° C. Samples were eluted using a gradient of 0%-100% B over 2.5 minutes, followed by equilibration with 100% A for 1 minute where A consisted of 0.1% TFA and B consisted of 90% MeOH/0.1% TFA at a flow rate of 0.6 mL/min. The retention time of 3-bromo tyrosine was 1.22 min (Method A).

The target of test [3] is T1, myeloperoxidase (MPO). Nature of the test: MPO peroxidation assay (Amplex Red assay). Particulars: potency range class. Put shortly: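 Human MPO at 200 pM with 40 nM H2O2 preincubated 10 min at room temperature with inhibitor in 100 mM KPi pH 7.4. Reaction started with Amplex Red mixture (200 μM Amplex Red, 10 mM H2O2); resorufin fluorescence (Ex 535, Em 590 nm) read kinetically for 15 min. IC50 fitted from slopes over 180-540 s.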

Sequence of eosinophil peroxidase (EPX) (P11678 140-715): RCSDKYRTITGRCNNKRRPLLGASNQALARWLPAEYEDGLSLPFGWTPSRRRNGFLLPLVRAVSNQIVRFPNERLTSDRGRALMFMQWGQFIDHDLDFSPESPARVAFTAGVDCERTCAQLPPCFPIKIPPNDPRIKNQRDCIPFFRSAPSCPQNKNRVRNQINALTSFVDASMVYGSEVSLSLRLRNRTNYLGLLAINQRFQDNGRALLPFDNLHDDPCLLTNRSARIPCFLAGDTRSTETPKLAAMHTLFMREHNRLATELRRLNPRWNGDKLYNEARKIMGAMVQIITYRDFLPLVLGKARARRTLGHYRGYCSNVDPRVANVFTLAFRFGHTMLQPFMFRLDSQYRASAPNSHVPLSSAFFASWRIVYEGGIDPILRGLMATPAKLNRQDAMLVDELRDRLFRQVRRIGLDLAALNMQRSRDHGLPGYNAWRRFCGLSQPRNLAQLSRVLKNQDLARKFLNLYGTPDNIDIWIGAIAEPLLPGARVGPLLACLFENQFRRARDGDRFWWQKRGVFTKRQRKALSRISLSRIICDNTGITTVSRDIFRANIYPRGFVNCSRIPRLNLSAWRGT

As to `Nc1cc(Cc2cnn(-c3ccc(F)cc3)c2)c2nn[nH]c2n1` [Example 1, 7-((1-(4-Fluorophenyl)-1H-pyrazol-4-yl)methyl)-3H-[1,2,3]triazolo[4,5-b]pyridin-5-amine], the IC50 at myeloperoxidase (MPO) [1] is 1 to 100 nM; in test [2], 19 nM; at myeloperoxidase (MPO) [3], 1 to 100 nM.
`Nc1cc(Cc2cnn(-c3ccccc3)c2)c2nn[nH]c2n1` [Example 5, 7-((1-Phenyl-1H-pyrazol-4-yl)methyl)-3H-[1,2,3]triazolo[4,5-b]pyridin-5-amine]: the concentration for half-maximal inhibition (IC50) is 1 to 100 nM against myeloperoxidase (MPO) [1], 11 nM in test [2] and 1 to 100 nM at myeloperoxidase (MPO) [3].
On to `Nc1cc(Cc2cnn(Cc3ccccc3)c2)c2nn[nH]c2n1` [Example 34, 7-((1-Benzyl-1H-pyrazol-4-yl)methyl)-3H-[1,2,3]triazolo[4,5-b]pyridin-5-amine], for which the figures for the IC50 (against myeloperoxidase (MPO) [1]; in test [2]; against myeloperoxidase (MPO) [3]) were 101 to 999 nM, 30 nM and 1 to 100 nM, respectively.
Regarding `Nc1cc(Cc2cn(Cc3ccccc3)nn2)c2nn[nH]c2n1` [Example 52, 7-((1-Benzyl-1H-1,2,3-triazol-4-yl)methyl)-3H-[1,2,3]triazolo[4,5-b]pyridin-5-amine], the results for the IC50 (against myeloperoxidase (MPO) [1]; in test [2]; on myeloperoxidase (MPO) [3]) were 101 to 999 nM, 20 nM and 1 to 100 nM, respectively.
Regarding `Nc1cc(Cc2cnn(C3CCC3)c2)c2nn[nH]c2n1` [Example 53, 7-((1-Cyclobutyl-1H-pyrazol-4-yl)methyl)-3H-[1,2,3]triazolo[4,5-b]pyridin-5-amine], the IC50 is 32 nM in test [2] and 1 to 100 nM at myeloperoxidase (MPO) [3].
As to `Nc1cc(Cc2cnn(Cc3ccc4c(c3)CCNC4)c2)c2nn[nH]c2n1` [Example 130, 7-((1-((1,2,3,4-Tetrahydroisoquinolin-6-yl)methyl)-1H-pyrazol-4-yl)methyl)-3H-[1,2,3]triazolo[4,5-b]pyridin-5-amine], the IC50 against myeloperoxidase (MPO) [1] is 1 to 100 nM; in test [2], 8 nM; against myeloperoxidase (MPO) [3] it was 1 to 100 nM.
Take `Nc1cc(Cc2cnn(Cc3ccc(CNC4CC4)cc3)c2)c2nn[nH]c2n1` [Example 185, 7-{[1-({4-[(Cyclopropylamino)methyl]phenyl}methyl)-1H-pyrazol-4-yl]methyl}-3H-[1,2,3]triazolo[4,5-b]pyridin-5-amine]: the IC50 on myeloperoxidase (MPO) [1] was 101 to 999 nM; in test [2], 45 nM; against myeloperoxidase (MPO) [3], 1 to 100 nM.
The matching figures for `Nc1cc(Cc2cnn(Cc3cccc(C4CCNC4)c3)c2)c2nn[nH]c2n1` (stereo not drawn) [Example 187, 7-[(1-{[3-(Pyrrolidin-3-yl)phenyl]methyl}-1H-pyrazol-4-yl)methyl]-3H-[1,2,3]triazolo[4,5-b]pyridin-5-amine]: 1 to 100 nM, 21 nM and 1 to 100 nM.
For the compound `Nc1cc(Cc2cnn(Cc3ccc4c(c3)C(F)(F)CNC4)c2)c2nn[nH]c2n1` [Example 260, 7-({1-[(4,4-Difluoro-1,2,3,4-tetrahydroisoquinolin-6-yl)methyl]-1H-pyrazol-4-yl}methyl)-3H-[1,2,3]triazolo[4,5-b]pyridin-5-amine], the IC50 at myeloperoxidase (MPO) [1] was 101 to 999 nM; in test [2], 114 nM; against myeloperoxidase (MPO) [3], 1 to 100 nM.
As for `Nc1cc(Cc2cnn(C[C@@H]3C[C@H](Oc4ccc(F)cc4)CN3)c2)c2nn[nH]c2n1` [Example 280, 7-[(1-{[(2S,4S)-4-(4-Fluorophenoxy)pyrrolidin-2-yl]methyl}-1H-pyrazol-4-yl)methyl]-3H-[1,2,3]triazolo[4,5-b]pyridin-5-amine], the IC50 against myeloperoxidase (MPO) [1] is 101 to 999 nM; on myeloperoxidase (MPO) [3], 1 to 100 nM.
Consider `Nc1cc(Cc2cnn(CC3CC(Cc4ccc(F)cc4)CN3)c2)c2nn[nH]c2n1` (stereo not drawn) [Example 281, 7-{[1-({4-[(4-Fluorophenyl)methyl]pyrrolidin-2-yl}methyl)-1H-pyrazol-4-yl]methyl}-3H-[1,2,3]triazolo[4,5-b]pyridin-5-amine], for which the IC50 on myeloperoxidase (MPO) [1] and against myeloperoxidase (MPO) [3] was 1 to 100 nM throughout.
Take `Nc1cc(Cc2cnn(C[C@H]3C[C@H](Oc4ccc(F)cc4)CN3)c2)c2nn[nH]c2n1` [Example 282, 7-[(1-{[(2R,4S)-4-(4-Fluorophenoxy)pyrrolidin-2-yl]methyl}-1H-pyrazol-4-yl)methyl]-3H-[1,2,3]triazolo[4,5-b]pyridin-5-amine]: the IC50 on myeloperoxidase (MPO) [1] and on myeloperoxidase (MPO) [3] was 1 to 100 nM throughout.
As to `Nc1cc(Cc2cn(Cc3ccccc3)nc2C(F)(F)F)c2nn[nH]c2n1` [Example 283, 7-{[1-Benzyl-3-(trifluoromethyl)-1H-pyrazol-4-yl]methyl}-3H-[1,2,3]triazolo[4,5-b]pyridin-5-amine], the values for the IC50 against myeloperoxidase (MPO) [1] and on myeloperoxidase (MPO) [3] were 101 to 999 nM and 1000 to 10000 nM, respectively.
`Nc1cc(Cc2cn(Cc3cccc(C4CCNCC4)c3)nc2C(F)(F)F)c2nn[nH]c2n1` [Example 284, 7-((1-(3-(Piperidin-4-yl)benzyl)-3-(trifluoromethyl)-1H-pyrazol-4-yl)methyl)-3H-[1,2,3]triazolo[4,5-b]pyridin-5-amine]: the IC50 at myeloperoxidase (MPO) [1] and against myeloperoxidase (MPO) [3] was 101 to 999 nM in each case.
Regarding `Nc1cc(Cc2cnn(Cc3cccc(C4CCNCC4)c3)c2C(F)(F)F)c2nn[nH]c2n1` [Example 285, 7-[(1-{[3-(Piperidin-4-yl)phenyl]methyl}-5-(trifluoromethyl)-1H-pyrazol-4-yl)methyl]-3H-[1,2,3]triazolo[4,5-b]pyridin-5-amine], the IC50 against myeloperoxidase (MPO) [1] and on myeloperoxidase (MPO) [3] was 1 to 100 nM each time.
Take `Nc1cc(Cc2cn(Cc3cccc(C4CCNCC4)c3)nc2C(F)F)c2nn[nH]c2n1` [Example 286, 7-{[3-(Difluoromethyl)-1-{[3-(piperidin-4-yl)phenyl]methyl}-1H-pyrazol-4-yl]methyl}-3H-[1,2,3]triazolo[4,5-b]pyridin-5-amine]: the IC50 at myeloperoxidase (MPO) [1] and against myeloperoxidase (MPO) [3] was 101 to 999 nM throughout.
Consider `COc1ccc(CN2CCc3ccc(Cn4cc(Cc5cc(N)nc6[nH]nnc56)cn4)cc3C2=O)cc1` [Example 287, 7-{[4-({5-Amino-3H-[1,2,3]triazolo[4,5-b]pyridin-7-yl}methyl)-1H-pyrazol-1-yl]methyl}-2-[(4-methoxyphenyl)methyl]-1,2,3,4-tetrahydroisoquinolin-1-one], for which the figures for the half-maximal inhibitory concentration (IC50) on myeloperoxidase (MPO) [1] and against myeloperoxidase (MPO) [3] were 1000 to 10000 nM and 1 to 100 nM, respectively.
